ChEMBL document CHEMBL1795222, “Pyridazine-derived γ-secretase modulators” (Bioorg Med Chem Lett, 2011)
The source made the active and inactive calls. The calls are words filed in the database; no cut-off is given here.

What was measured:
Gamma-secretase [1] = experiment: Inhibition of gamma-secretase in human SHSY5Y cells expressing Swedish variant of APP K595N/M596L assessed as reduction of amyloid beta 42 formation after 16 hrs by ELISA; format: cell-based; conditions: sh-sy5y
Gamma-secretase [2] = experiment: Inhibition of gamma-secretase in human SHSY5Y cells expressing Swedish variant of APP K595N/M596L assessed as reduction of amyloid beta 40 formation after 16 hrs by ELISA; format: cell-based; conditions: sh-sy5y
[3] = Inhibition of gamma-secretase expressed in african green monkey CV1 cells coexpressing Gal4 DNA-binding/transactivation domain assessed as inhibition of notch processing after 22 hrs by luciferase reporter assay; format: cell-based; conditions: CV-1, 22 h
CV-1 = experiment: Agonist activity at gamma-secretase expressed in african green monkey CV1 cells coexpressing Gal4 DNA-binding/transactivation domain assessed as increase of notch processing at 10 uM after 22 hrs by luciferase reporter assay; format: cell-based
SH-SY5Y = experiment: Cytotoxicity against human SH-SY5Y cells assessed as effect of cell viability at 100 uM after 24 hrs by WST1 assay; format: cell-based
[4] = Drug level in rat blood at 30 mg/kg, po after 6 hrs; format: ADME, organism-based; design: dose 30 mg/kg, route oral; conditions: read-out: Drug uptake
[5] = Drug level in rat brain at 30 mg/kg, po after 6 hrs; format: ADME, organism-based; design: dose 30 mg/kg, route oral; conditions: read-out: Drug uptake
Rattus norvegicus = experiment: Antialzheimer activity in rat assessed as reduction of amyloid beta 42 level in brain at 30 mg/kg, po after 6 hrs; format: functional; design: scale not given: the % may be the effect or the level left
[6] = Ratio of drug level in brain to blood in rat at 30 mg/kg, po after 6 hrs; format: ADME, organism-based; design: dose 30 mg/kg, route oral; conditions: read-out: BBR
[7] = Clearance in Sprague-Dawley rat blood at 1 mg/kg, iv and 2 mg/kg, po; format: ADME, organism-based
[8] = Volume of distribution at steady state in Sprague-Dawley rat at 1 mg/kg, iv and 2 mg/kg, po; format: ADME, organism-based; conditions: in vivo, read-out: Vdss
[9] = Half life in Sprague-Dawley rat at 1 mg/kg, iv and 2 mg/kg, po; format: ADME, organism-based; conditions: in vivo
[10] = Oral bioavailability in Sprague-Dawley rat at 2 mg/kg; format: ADME, organism-based; conditions: in vivo
[11] = molecular target: T1, Gamma-secretase (Homo sapiens) (UniProt Q96BI3+Q9NZ42+Q8WW43+P49768+Q92542+P49810); experiment: Inhibition of gamma-secretase in human SHSY5Y cells expressing Swedish variant of APP K595N/M596L assessed as reduction of amyloid beta 42 level after 24 hrs by DELFIA; format: cell-based; conditions: SH-SY5Y
[12] = molecular target: T1, Gamma-secretase (Homo sapiens); experiment: Inhibition of gamma-secretase in human SHSY5Y cells expressing Swedish variant of APP K595N/M596L assessed as reduction of amyloid beta 40 level after 24 hrs by DELFIA; format: cell-based; conditions: SH-SY5Y
[13] = molecular target: T1, Gamma-secretase (Homo sapiens); experiment: Inhibition of gamma-secretase in human SHSY5Y cells expressing Swedish variant of APP K595N/M596L assessed as reduction of total amyloid beta level after 24 hrs by DELFIA; format: cell-based; conditions: SH-SY5Y

SMILES	pIC50 (Gamma-secretase [1])	pIC50 (Gamma-secretase [2])	IC50 [3] [µM]	further results
COc1cc(-c2ccc(N[C@H](c3ccc(F)cc3)C(C)(C)O)nn2)ccc1-n1cnc(C)c1	7.4	6.8	20	–
COc1cc(-c2nnc(N[C@@H](C)c3ccc(F)cc3)c(C)c2C)ccc1-n1cnc(C)c1	6.5	5.9	> 20	–
COc1cc(-c2ccc(N[C@@H](C)c3cccc(F)c3)nn2)ccc1-n1cnc(C)c1	7.2	6.9	> 20	–
COc1cc(-c2ccc(N[C@@H](C)c3ccc(F)cc3)nn2)ccc1-n1cnc(C)c1	7.2	6.7	> 20	–
COc1cc(-c2ccc(NC(=O)c3ccc(F)cc3)nn2)ccc1-n1cnc(C)c1	5.6	4.7	1	–
COc1cc(-c2cc(C)c(N[C@@H](C)c3ccc(F)cc3)nn2)ccc1-n1cnc(C)c1 [listing 1 of 2 here]	7.2	6.7	10	Activity (SH-SY5Y): Toxic; concentration at 6 h [4]: 16 µM; concentration at 6 h [5]: 9.09 µM; Activity (Rattus norvegicus): >20%; Kp at 6 h [6]: 0.56
COc1cc(-c2ccc(NCc3ccc(F)cc3)nn2)ccc1-n1cnc(C)c1	6.5	6.2	> 20	–
COc1cc(-c2nnc(N[C@@H](C)c3ccc(F)cc3)cc2C)ccc1-n1cnc(C)c1	6.7	6.3	15.8	–
COc1cc(-c2cc(C#N)c(N[C@@H](C)c3ccc(F)cc3)nn2)ccc1-n1cnc(C)c1	6.9	5.8	15.8	–
COc1cc(-c2cc(C)c(N[C@@H](C)c3ccc(F)cc3)nn2)ccc1-n1cnc(C)c1.Cl	–	–	–	clearance [7]: 5.1 mL/min/kg; Vd [8]: 1.4 L/kg; half-life [9]: 3.1 h; bioavailability [10]: 98%
COc1cc(-c2cc(C)c(N[C@@H](C)c3ccc(F)cc3)nn2)ccc1-n1cnc(C)c1 [listing 2 of 2 here]	–	–	–	inhibition [11]: Dose-dependent effect; inhibition [12]: Dose-dependent effect; inhibition [13]: Active

Now from value to molecule, other results behind:

pIC50 (Gamma-secretase [1])	pIC50 (Gamma-secretase [2])	IC50 [3] [µM]	SMILES	further results
7.3	7.1	10	COc1cc(-c2ccc(N[C@@H](C)c3ccccc3F)nn2)ccc1-n1cnc(C)c1	–
7	6.1	–	COc1cc(-c2ccc(NC(C)(C)c3ccc(F)cc3)nn2)ccc1-n1cnc(C)c1	Activity (CV-1): > 30%
7.2	6.8	–	CCc1cc(-c2ccc(-n3cnc(C)c3)c(OC)c2)nnc1N[C@@H](C)c1ccc(F)cc1	Activity (CV-1): > 30%
6.8	6.5	> 20	COC[C@H](Nc1ccc(-c2ccc(-n3cnc(C)c3)c(OC)c2)nn1)c1ccccc1	–
7.1	6.8	> 20	COc1cc(-c2ccc(N[C@@H](C)c3ccccc3)nn2)ccc1-n1cnc(C)c1	–
6.8	6.8	> 20	COc1ccc([C@H](C)Nc2ccc(-c3ccc(-n4cnc(C)c4)c(OC)c3)nn2)cc1	–
7.3	7	–	COc1cc(-c2cc(C(C)C)c(N[C@@H](C)c3ccc(F)cc3)nn2)ccc1-n1cnc(C)c1	Activity (CV-1): > 30%
7.3	6.9	> 20	COc1cc(-c2ccc(N[C@@H](C)c3ccc(C(F)(F)F)cc3)nn2)ccc1-n1cnc(C)c1	–
7	5.6	–	COc1cc(-c2cc(C(F)(F)F)c(N[C@@H](C)c3ccc(F)cc3)nn2)ccc1-n1cnc(C)c1	Activity (CV-1): > 30%
6.2	6	> 20	COc1cc(-c2ccc(N[C@H](C)c3ccc(F)cc3)nn2)ccc1-n1cnc(C)c1	–
7.3	6.9	10	CC[C@H](Nc1ccc(-c2ccc(-n3cnc(C)c3)c(OC)c2)nn1)c1ccc(F)cc1	–
